The results in this text go back to patent US6583180B2, “Glucocorticoid receptor modulators” (Abbott Laboratories, priority 2001, dated 2003).

The assay has as its target T1, Human glucocorticoid receptors (Homo sapiens, UniProt P04150).
T1 construct: made in house; host or cells: Sf9 insect cells, recombinant baculovirus (BAC-TO-BAC)
T1 sequence (P04150 1-777): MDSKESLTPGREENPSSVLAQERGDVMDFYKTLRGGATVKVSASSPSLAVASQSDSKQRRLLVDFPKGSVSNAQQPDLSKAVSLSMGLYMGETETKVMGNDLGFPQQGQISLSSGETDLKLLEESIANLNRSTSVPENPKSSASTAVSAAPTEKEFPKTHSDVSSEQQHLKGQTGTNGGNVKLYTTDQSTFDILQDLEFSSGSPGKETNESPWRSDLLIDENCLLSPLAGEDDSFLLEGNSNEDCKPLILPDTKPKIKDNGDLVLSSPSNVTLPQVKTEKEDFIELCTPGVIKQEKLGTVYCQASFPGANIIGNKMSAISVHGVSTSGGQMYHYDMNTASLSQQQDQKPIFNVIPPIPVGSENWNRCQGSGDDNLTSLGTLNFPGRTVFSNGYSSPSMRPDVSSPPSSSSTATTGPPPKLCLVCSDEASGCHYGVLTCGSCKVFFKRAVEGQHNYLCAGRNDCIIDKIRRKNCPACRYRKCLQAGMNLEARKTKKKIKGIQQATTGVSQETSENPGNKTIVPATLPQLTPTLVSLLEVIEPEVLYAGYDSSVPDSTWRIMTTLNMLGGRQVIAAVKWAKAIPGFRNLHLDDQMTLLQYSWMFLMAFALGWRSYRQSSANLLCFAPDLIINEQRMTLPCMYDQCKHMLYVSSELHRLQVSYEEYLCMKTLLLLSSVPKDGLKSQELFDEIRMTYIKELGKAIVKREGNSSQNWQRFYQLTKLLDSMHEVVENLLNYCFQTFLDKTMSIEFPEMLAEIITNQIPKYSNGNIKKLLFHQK
The assay can be described thus: Radioligand filter binding assay, displacement of 3[H]-dexamethasone from hGR. The conditions noted are these: read-out: GR Binding (% Inhibition at 1.7 μM). An excerpt:
Dexamethasone hereafter referred to as dex was purchased from SIGMA. […] Human glucocorticoid receptors were extracted from Sf9 cells infected with a recombinant baculovirus transfer vector containing the cloned hGR genes. Recombinant baculovirus was generated utilizing the BAC-TO-BAC expression system (Life Technologies) in accordance to instruction from the supplier. The hGR coding sequences were cloned into a baculovirus transfer vector by standard techniques. The recombinant baculoviruses expressing hGR were amplified and used to infect Sf9 cells. Infected cells were harvested 48 hrs post infection. […] The concentration of hGR in the extract was measured as specific ^3[H]-dex binding with the G25-assay as described in J. Steroid Biochem. Molec. […] The extract was aliquoted and stored at −70° C.
The filter binding assay: Dilution series of the test compounds and dex as reference were made from 10 mM (1 mM dex) stock solutions in DMSO. 10 μl of the dilutions was added in duplicates to the wells. The cell extracts were diluted 10 fold in EPMo+MTG buffer (1 mM EDTA, HPO4 20 mM (pH8), 6 mM MTG). […] 110 μl of the diluted ^3[H]-dex were added to the wells. The final concentration of hGR in the experiment was estimated to 1 nM. All preparations were made in […] on ice and with +4° C. temperated buffers. The plates were incubated over night at +4° C. (15-20 hours).
The incubation was stopped by filtration through GF/B filter on the Tomtec Cellharvester. The filtration on the Tomtec Cellharvester was programmed as follows: 1) Preparation before filtration with EP buffer (1 mM EDTA 20 mM HPO4 (pH8)) 2×[Wash/Asp 0.6 sec., Asp 0.5 sec.]; 2) Prewet of GF/B filter with EP+PEI buffer (EP buffer, 0.3% Polyethylenimine) [Asp 0.8 sec.]; 3) Filtration/harvesting of the 96-well incubation plate 3×[Wash/Asp 0.6 sec., Asp 0.5 sec.]. The GF/B filter was dried for at least 1 hour at 65° C. A MeltiLex scintillation wax was melted onto the filter with the Microsealer. The filter was placed in a samplebag, which was thereafter trimmed with scissors to fit the filter cassette. The cassette were placed in the Microbeta and measured for 1 min/position, returning ccpm (corrected counts per minute).
b=((bmax−bmin)/(1+(I/IC50)^S))+bminI
The Microbeta-instrument generates the mean cpm (counts per minute) value/minute and corrects for individual variations between the detectors thus generating corrected cpm values.
What is called inhibition is the change of the read-out against control, counted positive when it falls. For `CCc1ccc(Oc2ccc(CN(Cc3ccc(F)cc3F)c3cccc(NS(C)(=O)=O)c3C)cc2)cc1OCC(=O)O` [Example 236, (5-{4-[((2,4-difluorobenzyl){2-methyl-3-[(methylsulfonyl)amino]phenyl}amino)methyl]phenoxy}-2-ethylphenoxy)acetic acid], the inhibition at 1.7 µM amounted to 96.1%.
Turning to `CCCCCCc1ccc(Oc2ccc(CN(Cc3ccc(F)cc3F)c3cccc(NS(C)(=O)=O)c3C)cc2)cc1OCC(=O)O` [Example 238, (5-{4-[((2,4-difluorobenzyl){2-methyl-3-[(methylsulfonyl)amino]phenyl}amino)methyl]phenoxy}-2-hexylphenoxy)acetic acid], the inhibition at 1.7 µM worked out at 94.2%.
Next, `CCOC(=O)CN(C)C(=O)CCCOc1cccc(Oc2ccc(CN(Cc3ccccc3)c3cccc(NS(C)(=O)=O)c3C)cc2)c1` [Example 239, ethyl N-[4-(3-{4-[(benzyl{2-methyl-3-[(methylsulfonyl)amino]phenyl}amino)methyl]phenoxy}phenoxy)butanoyl]-N-methylglycinate]: 93.4%.
`Cc1c(NS(C)(=O)=O)cccc1N(Cc1ccccc1)Cc1ccc(Oc2cccc(OCCCC(=O)N(C)CC(=O)O)c2)cc1` [Example 240, N-[4-(3-{4-[(benzyl{2-methyl-3-[(methylsulfonyl)amino]phenyl}amino)methyl]phenoxy}phenoxy)butanoyl]-N-methylglycine]: the inhibition at 1.7 µM amounted to 93.3%.
In the case of `CCOC(=O)COc1cc(Oc2ccc(CN(Cc3ccc(F)cc3F)c3cccc(NS(C)(=O)=O)c3C)cc2)ccc1Cl` [Example 241, ethyl (2-chloro-5-{4-[((2,4-difluorobenzyl){2-methyl-3-[(methylsulfonyl)amino]phenyl}amino)methyl]phenoxy}phenoxy)acetate], the inhibition at 1.7 µM amounted to 90.6%.
On to `Cc1c(NS(C)(=O)=O)cccc1N(Cc1ccccc1)Cc1ccc(C(=O)c2cccc(OCCC3CC3)c2)cc1` [Example 242, N-[3-(benzyl{4-[3-(2-cyclopropylethoxy)benzoyl]benzyl}amino)-2-methylphenyl]methanesulfonamide], for which the inhibition at 1.7 µM amounted to 94.1%.
For the molecule `Cc1c(NS(C)(=O)=O)cccc1N(Cc1ccccc1)Cc1ccc(C(=O)c2cccc(OCC3CCCC3)c2)cc1` [Example 243, N-[3-(benzyl{4-[3-(cyclopentylmethoxy)benzoyl]benzyl}amino)-2-methylphenyl]methanesulfonamide], the inhibition at 1.7 µM came out at 92%.
Take `Cc1c(NS(C)(=O)=O)cccc1N(Cc1ccccc1)Cc1ccc(C(=O)c2cccc(OCC3CCCO3)c2)cc1` (stereo not drawn) [Example 244, N-[3-(benzyl{4-[3-(tetrahydrofuran-2-ylmethoxy)benzoyl]benzyl}amino)-2-methylphenyl]methanesulfonamide]: the inhibition at 1.7 µM was found to be 95.3%.
For the molecule `Cc1c(NS(C)(=O)=O)cccc1N(Cc1ccccc1)Cc1ccc(C(=O)c2cccc(OCC3CCOC3)c2)cc1` (stereo not drawn) [Example 245, N-[3-(benzyl{4-[3-(tetrahydrofuran-3-ylmethoxy)benzoyl]benzyl}amino)-2-methylphenyl]methanesulfonamide], the inhibition at 1.7 µM was determined as 96.3%.
`Cc1c(NS(C)(=O)=O)cccc1N(Cc1ccccc1)Cc1ccc(C(=O)c2cccc(OCCc3ccccc3)c2)cc1` [Example 246, N-[3-(benzyl{4-[3-(2-phenylethoxy)benzoyl]benzyl}amino)-2-methylphenyl]methanesulfonamide]: the inhibition at 1.7 µM was 88.6%.
Turning to `Cc1c(NS(C)(=O)=O)cccc1N(Cc1ccccc1)Cc1ccc(C(=O)c2cccc(OCc3ccccc3)c2)cc1` [Example 247, N-[3-(benzyl{4-[3-(benzyloxy)benzoyl]benzyl}amino)-2-methylphenyl]methanesulfonamide], the inhibition at 1.7 µM was 90.9%.
With `Cc1c(NS(C)(=O)=O)cccc1N(Cc1ccccc1)Cc1ccc(C(=O)c2cccc(OCCN3CCCC3=O)c2)cc1` [Example 248, N-{3-[benzyl(4-{3-[2-(2-oxopyrrolidin-1-yl)ethoxy]benzoyl}benzyl)amino]-2-methylphenyl}methanesulfonamide], the inhibition at 1.7 µM came to 96.7%.
For the molecule `Cc1ncsc1CCOc1cccc(C(=O)c2ccc(CN(Cc3ccccc3)c3cccc(NS(C)(=O)=O)c3C)cc2)c1` [Example 249, N-{3-[benzyl(4-{3-[2-(4-methyl-1,3-thiazol-5-yl)ethoxy]benzoyl}benzyl)amino]-2-methylphenyl}methanesulfonamide], the inhibition at 1.7 µM worked out at 95.4%.
With `Cc1c(NS(C)(=O)=O)cccc1N(Cc1ccccc1)Cc1ccc(C(=O)c2ccc(OC[C@H](O)CO)cc2)cc1` [Example 250, N-(3-{benzyl[4-(4-{[(2R)-2,3-dihydroxypropyl]oxy}benzoyl)benzyl]amino}-2-methylphenyl)methanesulfonamide], the inhibition at 1.7 µM was determined as 92.9%.
Next, `Cc1c(NS(C)(=O)=O)cccc1N(Cc1ccccc1)Cc1ccc(Oc2ccc(OCCCC(=O)NCC(=O)O)cc2)cc1` [Example 251, N-[4-(4-{4-[(benzyl{2-methyl-3-[(methylsulfonyl)amino]phenyl}amino)methyl]phenoxy}phenoxy)butanoyl]glycine]: 94.2%; `Cc1c(NS(C)(=O)=O)cccc1N(Cc1ccccc1)Cc1ccc(Oc2ccc(OCCCC(=O)NCCC(=O)O)cc2)cc1` [Example 252, N-[4-(4-{4-[(benzyl{2-methyl-3-[(methylsulfonyl)amino]phenyl}amino)methyl]phenoxy}phenoxy)butanoyl]-beta-alanine]: 91.9%.
`Cc1c(NS(C)(=O)=O)cccc1N(Cc1ccccc1)Cc1ccc(Oc2ccc(OCCCC(=O)N(C)CC(=O)O)cc2)cc1` [Example 254, N-[4-(4-{4-[(benzyl{2-methyl-3-[(methylsulfonyl)amino]phenyl}amino)methyl]phenoxy}phenoxy)butanoyl]-N-methylglycine]: the inhibition at 1.7 µM was found to be 92.8%.
Next, `Cc1c(NS(C)(=O)=O)cccc1N(Cc1ccccc1)Cc1ccc(Oc2ccc(OCCCC(=O)N[C@@H](CCC(=O)O)C(=O)O)cc2)cc1` [Example 255, N-[4-(4-{4-[(benzyl{2-methyl-3-[(methylsulfonyl)amino]phenyl}amino)methyl]phenoxy}phenoxy)butanoyl]-L-glutamic acid]: 93.6%; `Cc1c(NS(C)(=O)=O)cccc1N(Cc1ccccc1)Cc1ccc(Oc2ccc(OCCCC(=O)N[C@H](C(=O)O)C(C)C)cc2)cc1` [Example 256, N-[4-(4-{4-[(benzyl{2-methyl-3-[(methylsulfonyl)amino]phenyl}amino)methyl]phenoxy}phenoxy)butanoyl]-L-valine]: 92.6%.
With `Cc1c(NS(C)(=O)=O)cccc1N(Cc1ccccc1)Cc1ccc(Oc2ccc(OCCCC(=O)Nc3cc(C(=O)O)n(C)c3)cc2)cc1` [Example 257, 4-{[4-(4-{4-[(benzyl{2-methyl-3-[(methylsulfonyl)amino]phenyl}amino)methyl]phenoxy}phenoxy)butanoyl]amino}-1-methyl-1H-pyrrole-2-carboxylic acid], the inhibition at 1.7 µM came out at 90.6%.
On to `Cc1c(NS(C)(=O)=O)cccc1N(Cc1ccccc1)Cc1ccc(Oc2ccc(OCCCC(=O)N[C@@H](CO)C(=O)O)cc2)cc1` [Example 258, N-[4-(4-{4-[(benzyl{2-methyl-3-[(methylsulfonyl)amino]phenyl}amino)methyl]phenoxy}phenoxy)butanoyl]-L-serine], for which the inhibition at 1.7 µM was found to be 91.6%.
